Source: patent US20210236442A1, “METHODS FOR DELAYING OCCURRENCE OF NEW-ONSET TYPE 2 DIABETES AND FOR SLOWING PROGRESSION OF AND TREATING TYPE 2 DIABETES” (Dalcor Pharma UK Ltd., Leatherhead, Zug Branch, priority 2018, published 2021)

Columns and labels:
Type in all cases: in vivo, human
[1] = system: patients enrolled in the dal-OUTCOMES trial; assay: Cox proportional hazards regression of SNP rs1967309 for association with cardiovascular events per treatment arm (dal-OUTCOMES); conditions: for Event (cardiovascular events): 600 mg dalcetrapib arm; for HR (rs1967309, cardiovascular events) / β genetic (rs1967309, cardiovascular events): dalcetrapib arm
From the text: Inclusion Criteria: Patients 45 years of age or older who provided written informed consent were eligible to participate if they had been hospitalized for an acute coronary syndrome characterized by elevated cardiac biomarkers, with symptoms of acute myocardial ischemia, ischemic electrocardiographic abnormalities that were new or presumed to be new, or loss of viable myocardium on imaging. Patients without elevated cardiac biomarkers were eligible to participate if symptoms of acute myocardial ischemia were accompanied by electrocardiographic changes that were new or presumed to be new and by additional evidence of obstructive coronary disease. […] However, no specific statin agent or dose was specified, and patients were not excluded if their LDL cholesterol level remained above 100 mg per deciliter. There were no exclusions on the basis of patients' HDL cholesterol level. […] The patients began a single-blind placebo-based run-in period of approximately 4 to 6 weeks to allow for patients to stabilize and for completion of any planned revascularization procedures. At the end of the run-in period, patients in stable condition were randomized in a 1:1 ratio to 600 mg of dalcetrapib or placebo on top of evidence-based medical care for acute cardiovascular syndrome (“ACS”). The descriptive statistics and analyses were performed using SAS 9.4 software.
Cox proportional hazards regression of single nucleotide polymorphism (“SNP”) rs1967309 was conducted for association with cardiovascular events in each treatment arm and in patients with a diagnosis of diabetic at baseline in the dal-OUTCOMES trial and in non-diabetic patients separately without controlling for any covariate, as shown in Table 4. Cox proportional hazards regression of SNP rs1967309 was conducted for association with cardiovascular events in each treatment arm and in diabetic and non-diabetic patients separately controlling for age and sex, as shown in Table 5.

[2] = system: uncontrolled diabetic patients of the dal-OUTCOMES trial; assay: Effect of dalcetrapib on whole-blood HbA1c in uncontrolled diabetics
Experimental: The effect of dalcetrapib in uncontrolled diabetics defined once as HbA1c>7% at baseline or once as >7.5% at baseline was retrospectively assessed in patients of the dal-OUTCOMES trial. The descriptive statistics and analyses were performed using SAS 9.4 software. Two populations of uncontrolled diabetics at baseline were defined: patients having a whole-blood HbA1c level of >7 (n=437) and patients having a whole-blood HbA1c level of >7.5 (n=280).

[3] = system: patients of the dal-OUTCOMES trial; assay: Cox proportional hazards regression of dalcetrapib treatment arm for association with new onset diabetes
Experimental: The effect of dalcetrapib on whole-blood HbA1c levels irrespective of genotype and the impact of dalcetrapib on risk of new onset diabetes were retrospectively assessed in patients of the dal-OUTCOMES trial. The descriptive statistics and analyses were performed using SAS 9.4 software. Diabetes at baseline was defined based on at least one of the following patient criteria: (1) diagnosis of diabetics at baseline in the dal-OUTCOMES trial; (2) whole-blood HbA1c level>=6.5% at baseline; (3) fasting glucose level>=7.0 mmol/L at baseline; and (4) use of diabetes medication at or before baseline. New onset diabetes was defined in non-diabetic patients at baseline based on at least one of the following patient criteria: (1) adverse event (AE) preferred terms “type 2 diabetes mellitus” OR “diabetes mellitus” from the AE file that occurred after randomization; (2) use of diabetes medication that was initiated after randomization; (2) at least one whole-blood HbA1c measurement of >=6.5% after randomization; and (4) at least one fasting glucose measurement of >=126 mg/dl or >=7.0 mmol/L after randomization. Cox proportional hazards regression of dalcetrapib treatment arm for association with new onset diabetes was assessed. There were 598 (14%) new onset diabetes cases in the 4173 non-diabetics at baseline.

[4] = system: patients enrolled in the dal-OUTCOMES trial; assay: Descriptive statistics of glucose and HbA1c, reported and change from baseline, by genotype and treatment arm; conditions: non-diabetic patients irrespective of rs1967309 genotype
From the text: The effect of ADCY9 rs1967309 genotypes on patient HbA1C and glucose levels was retrospectively assessed in patients enrolled in the dal-OUTCOMES trial.
Inclusion Criteria: Patients 45 years of age or older who provided written informed consent were eligible to participate if they had been hospitalized for an acute coronary syndrome characterized by elevated cardiac biomarkers, with symptoms of acute myocardial ischemia, ischemic electrocardiographic abnormalities that were new or presumed to be new, or loss of viable myocardium on imaging. Patients without elevated cardiac biomarkers were eligible to participate if symptoms of acute myocardial ischemia were accompanied by electrocardiographic changes that were new or presumed to be new and by additional evidence of obstructive coronary disease. […] However, no specific statin agent or dose was specified, and patients were not excluded if their LDL cholesterol level remained above 100 mg per deciliter. There were no exclusions on the basis of patients' HDL cholesterol level. […]
Descriptive statistics of reported and change from baseline of glucose and HbA1C according to the genotype of the SNP rs1967309 were analyzed for each treatment arm and for diabetic and non-diabetic patients separately with non-parametric statistics.

[5] = system: patients of the dal-OUTCOMES trial; assay: Repeated measures mixed regression of treatment arm for HbA1c, all patients and per genotype (Example 2); conditions: all patients combined and each rs1967309 genotype; with and without covariates
Experimental: The effect of dalcetrapib on whole-blood HbA1c levels irrespective of genotype and the impact of dalcetrapib on risk of new onset diabetes were retrospectively assessed in patients of the dal-OUTCOMES trial. The descriptive statistics and analyses were performed using SAS 9.4 software.

[6] = diabetic patients, controlling for age and sex
[7] = diabetic patients, no covariate
[8] = non-diabetic patients, controlling for age and sex
[9] = non-diabetic patients, no covariate

CCC(CC)CC1(C(=O)Nc2ccccc2SC(=O)C(C)C)CCCCC1 [dalcetrapib]
SNP rs1967309 as predictor of cardiovascular events in the dalcetrapib arm ([1]; diabetic and non-diabetic patients, with and without covariates, significance level of 5%): predictive of cardiovascular events
Event (cardiovascular events) ([1]; diabetic patients, Table 4): 134
Event (cardiovascular events) ([1]; diabetic patients, Table 5): 134
HR (rs1967309, cardiovascular events) [1, 6]: 0.6631
β genetic (rs1967309, cardiovascular events) [1, 6]: −0.4108
HR (rs1967309, cardiovascular events) [1, 7]: 0.6597
β genetic (rs1967309, cardiovascular events) [1, 7]: −0.4159
Event (cardiovascular events) ([1]; non-diabetic patients, Table 4): 255
Event (cardiovascular events) ([1]; non-diabetic patients, Table 5): 255
HR (rs1967309, cardiovascular events) [1, 8]: 0.6366
β genetic (rs1967309, cardiovascular events) [1, 8]: −0.4516
HR (rs1967309, cardiovascular events) [1, 9]: 0.6400
β genetic (rs1967309, cardiovascular events) [1, 9]: −0.4462
association of treatment arm (dalcetrapib versus placebo) with whole-blood HbA1c at M06 ([2]; HbA1c >7 at baseline, genotype rs1967309/AA, without adjustment for covariates, significance level 5%): associated with a decrease in whole-blood HbA1c
repeated measures analysis, natural logarithm of HbA1C at 6, 12 and 24 months ([2]; uncontrolled diabetic patients, mixed regression models): confirmed by repeated measures analysis
mean ln(HbA1c) in the dalcetrapib treatment arm ([2]; uncontrolled diabetics, versus placebo arm): lower than in the placebo arm
effect of dalcetrapib on new onset diabetes ([3]; non-diabetic patients at baseline): trend for a protective effect
association of new onset diabetes with dalcetrapib treatment arm ([3]; non-diabetic patients at baseline, all combined and each genotype, P<0.05, with and without covariates): not found to be significantly associated
association with treatment arm ([3]; patients with diabetes at baseline and AA genotype, with and without covariates, patients with events n=27): significant association with treatment arm
HbA1c change from baseline compared to placebo [4]: greater reductions in HbA1c
whole-blood level of HbA1c with dalcetrapib treatment compared to placebo [4]: systematically lower
dalcetrapib treatment arm as predictor of HbA1c [5]: significant predictor of reduced HbA1c
